One block for each compound: values may come before it.
Assays:
Assay type in all cases: biochemical
[1] = biological target: T1, Human PI3K alpha (Homo sapiens, UniProt P42336); assay: Human PI3K alpha enzyme assay (HTRF); details: concentration not given, b1387 states 1.1 μM for PI3K α and β; for inhibition at 1.1 µM: read-out: p110 alpha Percent Inhibition
T1 construct: His (N); host or cells: SF9 insect cells (baculovirus)

[2] = biological target: T2, Human PI3K beta (Homo sapiens, UniProt P42338); assay: Human PI3K beta enzyme assay (HTRF); details: concentration not given, b1387 states 1.1 μM for PI3K α and β; for inhibition at 1.1 µM: read-out: p110 beta Percent Inhibition
T2 construct: His (N); host or cells: SF9 insect cells (baculovirus)
T2 sequence (P42338 whole entry): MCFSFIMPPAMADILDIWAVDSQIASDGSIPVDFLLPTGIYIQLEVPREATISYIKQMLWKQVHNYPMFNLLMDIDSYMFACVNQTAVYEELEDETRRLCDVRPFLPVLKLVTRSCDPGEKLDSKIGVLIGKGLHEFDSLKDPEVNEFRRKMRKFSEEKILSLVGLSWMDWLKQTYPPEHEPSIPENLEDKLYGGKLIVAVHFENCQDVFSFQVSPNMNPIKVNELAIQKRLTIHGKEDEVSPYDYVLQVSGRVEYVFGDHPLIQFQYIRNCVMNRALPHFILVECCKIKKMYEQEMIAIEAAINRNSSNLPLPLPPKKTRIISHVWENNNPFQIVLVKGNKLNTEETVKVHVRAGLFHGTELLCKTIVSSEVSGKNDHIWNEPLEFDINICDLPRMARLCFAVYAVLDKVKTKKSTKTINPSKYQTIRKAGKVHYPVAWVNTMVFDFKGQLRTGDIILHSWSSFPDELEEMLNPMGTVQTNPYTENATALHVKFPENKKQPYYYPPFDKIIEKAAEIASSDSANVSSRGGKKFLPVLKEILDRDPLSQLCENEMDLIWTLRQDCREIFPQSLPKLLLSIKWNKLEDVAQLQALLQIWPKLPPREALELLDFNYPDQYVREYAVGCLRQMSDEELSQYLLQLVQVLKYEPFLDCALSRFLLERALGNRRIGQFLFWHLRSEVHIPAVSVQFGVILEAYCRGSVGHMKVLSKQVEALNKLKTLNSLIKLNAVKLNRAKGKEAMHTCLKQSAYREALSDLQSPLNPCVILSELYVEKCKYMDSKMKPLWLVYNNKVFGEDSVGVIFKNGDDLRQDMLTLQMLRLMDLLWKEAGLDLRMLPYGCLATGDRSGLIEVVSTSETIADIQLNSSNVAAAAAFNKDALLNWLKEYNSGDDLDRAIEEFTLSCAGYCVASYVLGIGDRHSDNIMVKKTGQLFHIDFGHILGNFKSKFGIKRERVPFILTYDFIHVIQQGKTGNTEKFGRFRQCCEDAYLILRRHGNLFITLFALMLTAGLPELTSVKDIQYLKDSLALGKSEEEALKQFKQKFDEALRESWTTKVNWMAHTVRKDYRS
T2 sequence (P27986 whole entry partner): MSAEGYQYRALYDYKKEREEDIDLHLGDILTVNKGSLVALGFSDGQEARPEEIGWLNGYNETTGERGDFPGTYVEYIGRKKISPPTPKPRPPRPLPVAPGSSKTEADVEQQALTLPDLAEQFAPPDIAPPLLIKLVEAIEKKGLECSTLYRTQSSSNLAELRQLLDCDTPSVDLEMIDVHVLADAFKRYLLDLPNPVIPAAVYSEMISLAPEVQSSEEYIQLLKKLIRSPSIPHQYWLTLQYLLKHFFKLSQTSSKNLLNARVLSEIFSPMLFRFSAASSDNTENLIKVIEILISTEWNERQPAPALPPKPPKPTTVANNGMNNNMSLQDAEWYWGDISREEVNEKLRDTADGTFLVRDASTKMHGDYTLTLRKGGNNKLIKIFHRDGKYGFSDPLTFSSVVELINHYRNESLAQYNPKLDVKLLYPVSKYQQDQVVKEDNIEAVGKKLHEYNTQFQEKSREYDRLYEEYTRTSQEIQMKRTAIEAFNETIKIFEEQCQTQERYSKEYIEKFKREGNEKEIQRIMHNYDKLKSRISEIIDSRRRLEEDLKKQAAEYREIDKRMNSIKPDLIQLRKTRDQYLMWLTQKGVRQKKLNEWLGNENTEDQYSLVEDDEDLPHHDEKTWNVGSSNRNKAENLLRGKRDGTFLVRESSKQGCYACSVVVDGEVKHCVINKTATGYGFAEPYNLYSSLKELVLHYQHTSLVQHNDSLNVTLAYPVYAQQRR
Outline: (§1)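 Compounds were mixed with 25 uM ATP, then with 3.5 uM di-C8 PI(4,5)P2 and His-tagged PI3K isoform (β 5.25 nM, δ 0.75 nM, γ 5 nM) at pH 7.00. After 30 min at room temperature, EDTA stopped the reaction and PIP3 was measured by HTRF over 1 h.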

[3] = biological target: T3, Human PI3K delta (Homo sapiens, UniProt O00329); assay: Human PI3K delta enzyme assay (HTRF); details: concentration not given, b1389 states 1.0 μM for PI3K δ and γ; for inhibition at 1 µM: read-out: p110 delta Percent Inhibition
T3 construct: His (N); host or cells: SF9 insect cells (baculovirus)
T3 sequence (O00329 whole entry): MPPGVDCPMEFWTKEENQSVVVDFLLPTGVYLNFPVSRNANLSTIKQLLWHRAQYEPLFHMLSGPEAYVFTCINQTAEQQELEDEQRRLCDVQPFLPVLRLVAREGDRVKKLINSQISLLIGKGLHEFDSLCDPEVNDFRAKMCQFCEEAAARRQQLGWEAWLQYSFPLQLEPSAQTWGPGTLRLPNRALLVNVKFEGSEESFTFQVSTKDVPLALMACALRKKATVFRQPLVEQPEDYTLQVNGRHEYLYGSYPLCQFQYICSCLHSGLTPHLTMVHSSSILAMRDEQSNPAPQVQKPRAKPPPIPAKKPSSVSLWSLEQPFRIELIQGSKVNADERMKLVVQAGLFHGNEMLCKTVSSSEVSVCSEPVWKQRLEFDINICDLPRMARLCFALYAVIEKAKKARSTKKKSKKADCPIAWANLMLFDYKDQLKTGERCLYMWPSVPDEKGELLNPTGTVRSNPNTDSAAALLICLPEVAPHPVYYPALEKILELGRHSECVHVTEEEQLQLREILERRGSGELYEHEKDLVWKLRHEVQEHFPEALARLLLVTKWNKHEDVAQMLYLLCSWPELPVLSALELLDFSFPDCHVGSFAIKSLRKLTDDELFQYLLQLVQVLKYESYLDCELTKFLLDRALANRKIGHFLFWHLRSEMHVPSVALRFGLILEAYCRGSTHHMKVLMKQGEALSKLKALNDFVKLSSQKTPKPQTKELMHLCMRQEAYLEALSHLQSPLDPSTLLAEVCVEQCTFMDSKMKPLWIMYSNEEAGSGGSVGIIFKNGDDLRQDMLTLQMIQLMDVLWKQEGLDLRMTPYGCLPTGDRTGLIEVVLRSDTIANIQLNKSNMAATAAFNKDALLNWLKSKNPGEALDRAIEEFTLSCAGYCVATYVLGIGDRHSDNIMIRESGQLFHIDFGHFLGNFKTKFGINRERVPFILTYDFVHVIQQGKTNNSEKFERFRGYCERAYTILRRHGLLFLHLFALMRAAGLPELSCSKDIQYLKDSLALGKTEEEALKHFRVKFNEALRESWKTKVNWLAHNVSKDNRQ
T3 sequence (P27986 whole entry partner): as the sequence (P27986 whole entry partner) above
Outline: as §1

[4] = biological target: T4, Human PI3K gamma (Homo sapiens, UniProt P48736); assay: Human PI3K gamma enzyme assay (HTRF); details: concentration not given, b1389 states 1.0 μM for PI3K δ and γ; for inhibition at 1 µM: read-out: p110 gamma Percent Inhibition
T4 construct: His (N); host or cells: SF9 insect cells (baculovirus)
T4 sequence (P48736 whole entry): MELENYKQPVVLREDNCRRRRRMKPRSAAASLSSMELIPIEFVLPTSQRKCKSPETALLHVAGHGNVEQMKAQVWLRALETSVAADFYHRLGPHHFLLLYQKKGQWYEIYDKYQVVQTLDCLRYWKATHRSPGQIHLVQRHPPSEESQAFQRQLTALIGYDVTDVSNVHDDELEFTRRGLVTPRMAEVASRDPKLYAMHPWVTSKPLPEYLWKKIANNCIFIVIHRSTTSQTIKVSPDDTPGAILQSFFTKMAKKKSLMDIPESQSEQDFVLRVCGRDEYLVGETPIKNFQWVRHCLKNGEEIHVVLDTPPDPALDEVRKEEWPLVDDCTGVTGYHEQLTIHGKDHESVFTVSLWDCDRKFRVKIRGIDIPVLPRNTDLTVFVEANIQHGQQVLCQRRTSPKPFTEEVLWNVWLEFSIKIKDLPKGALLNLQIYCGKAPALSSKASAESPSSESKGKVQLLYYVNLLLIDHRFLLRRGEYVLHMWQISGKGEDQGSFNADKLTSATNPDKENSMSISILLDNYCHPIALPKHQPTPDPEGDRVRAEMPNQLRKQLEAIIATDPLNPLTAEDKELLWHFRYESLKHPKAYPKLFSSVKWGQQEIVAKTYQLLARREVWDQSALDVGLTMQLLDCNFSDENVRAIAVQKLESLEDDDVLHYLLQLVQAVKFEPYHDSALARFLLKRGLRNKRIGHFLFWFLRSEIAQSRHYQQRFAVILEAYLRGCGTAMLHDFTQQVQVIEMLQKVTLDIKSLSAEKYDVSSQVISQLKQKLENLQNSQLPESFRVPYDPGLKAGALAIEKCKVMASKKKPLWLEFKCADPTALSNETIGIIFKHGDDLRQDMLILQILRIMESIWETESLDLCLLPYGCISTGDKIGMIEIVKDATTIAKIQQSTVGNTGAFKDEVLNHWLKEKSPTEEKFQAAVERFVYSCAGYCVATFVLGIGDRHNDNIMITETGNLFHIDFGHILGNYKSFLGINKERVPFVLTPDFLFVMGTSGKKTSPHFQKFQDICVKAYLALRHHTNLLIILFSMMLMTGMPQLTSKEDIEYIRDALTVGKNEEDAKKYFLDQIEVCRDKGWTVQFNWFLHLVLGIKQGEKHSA
Outline: as §1

T1 sequence (P42336 whole entry): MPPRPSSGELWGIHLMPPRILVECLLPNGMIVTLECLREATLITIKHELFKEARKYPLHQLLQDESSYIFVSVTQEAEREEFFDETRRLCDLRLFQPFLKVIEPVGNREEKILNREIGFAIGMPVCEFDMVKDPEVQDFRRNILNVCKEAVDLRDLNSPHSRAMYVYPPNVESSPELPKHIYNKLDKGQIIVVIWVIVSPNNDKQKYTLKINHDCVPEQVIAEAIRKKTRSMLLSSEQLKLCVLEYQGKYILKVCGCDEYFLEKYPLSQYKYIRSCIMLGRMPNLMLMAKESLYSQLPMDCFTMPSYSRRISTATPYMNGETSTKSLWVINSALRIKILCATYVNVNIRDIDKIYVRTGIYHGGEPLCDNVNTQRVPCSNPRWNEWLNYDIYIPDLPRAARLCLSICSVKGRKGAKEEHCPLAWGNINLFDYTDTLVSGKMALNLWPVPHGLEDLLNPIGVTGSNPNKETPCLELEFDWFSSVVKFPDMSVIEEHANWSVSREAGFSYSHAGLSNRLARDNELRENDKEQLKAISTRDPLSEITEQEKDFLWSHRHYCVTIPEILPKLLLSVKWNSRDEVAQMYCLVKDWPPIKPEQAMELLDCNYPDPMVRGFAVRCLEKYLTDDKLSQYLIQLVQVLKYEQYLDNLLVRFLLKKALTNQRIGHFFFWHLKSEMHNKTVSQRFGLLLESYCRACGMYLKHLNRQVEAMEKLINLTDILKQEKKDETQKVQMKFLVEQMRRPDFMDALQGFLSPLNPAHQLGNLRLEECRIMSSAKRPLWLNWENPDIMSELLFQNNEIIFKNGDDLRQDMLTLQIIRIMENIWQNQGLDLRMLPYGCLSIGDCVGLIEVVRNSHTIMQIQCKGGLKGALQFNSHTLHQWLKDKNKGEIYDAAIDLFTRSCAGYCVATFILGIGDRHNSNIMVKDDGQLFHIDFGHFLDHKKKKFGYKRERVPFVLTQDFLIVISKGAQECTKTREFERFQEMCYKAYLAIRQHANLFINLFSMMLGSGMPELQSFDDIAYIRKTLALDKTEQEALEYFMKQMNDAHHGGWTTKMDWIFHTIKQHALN
T1 sequence (P27986 whole entry partner): as the sequence (P27986 whole entry partner) above

- inhibition at 1.1 µM [1]: 0%
- inhibition at 1.1 µM [2]: 69%
- inhibition at 1 µM [3]: 12%
- inhibition at 1 µM [4]: 4%
Compound: O=C(O)c1cc(-c2sc(-c3ccncc3)nc2Cc2ccc(Cl)cc2)[nH]n1 [Compound 262, 5-(4-(4-chlorobenzyl)-2-(pyridin-4-yl)thiazol-5-yl)-1H-pyrazole-3-carboxylic acid]

- inhibition at 1.1 µM [1]: 72%
- inhibition at 1.1 µM [2]: 100%
- inhibition at 1 µM [3]: 101%
- inhibition at 1 µM [4]: 15%
Compound: CC(=O)Nc1cc(-c2cc(C(c3ccc(Cl)cc3)N3CC[C@H](CO)C3)c(-c3nnc[nH]3)s2)ccn1 (some centres unmarked) [Compound 269]

- inhibition at 1.1 µM [1]: 35%
- inhibition at 1.1 µM [2]: 106%
- inhibition at 1 µM [3]: 92%
- inhibition at 1 µM [4]: 34%
Compound: OC(c1ccc2ccccc2c1)c1cc(-c2ccncc2)sc1-c1nnc[nH]1 (centres unmarked) [Compound 280]

- inhibition at 1.1 µM [1]: 36%
- inhibition at 1.1 µM [2]: 92%
- inhibition at 1 µM [3]: 104%
- inhibition at 1 µM [4]: 50%
Compound: O=C(O)c1sc(N2CCOCC2)nc1Cc1cc2ccccc2s1 [Compound 286]

- inhibition at 1.1 µM [1]: 14%
- inhibition at 1.1 µM [2]: 85%
- inhibition at 1 µM [3]: 76%
- inhibition at 1 µM [4]: 19%
Compound: COc1ccc2cc(Cc3nc(N4CCOCC4)sc3C(=O)O)ccc2c1 [Compound 288]

- inhibition at 1.1 µM [1]: 11%
- inhibition at 1.1 µM [2]: 32%
- inhibition at 1 µM [3]: 32%
- inhibition at 1 µM [4]: 10%
Compound: Cc1nc2cc(Cc3nc(N4CCOCC4)sc3C(=O)O)ccc2s1 [Compound 289]

- inhibition at 1.1 µM [1]: 23%
- inhibition at 1.1 µM [2]: 104%
- inhibition at 1 µM [3]: 104%
- inhibition at 1 µM [4]: 49%
Compound: O=C(O)c1sc(N2CCOCC2)nc1Cc1cc(Cl)c(Cl)cc1F [Compound 290]

- inhibition at 1.1 µM [1]: 36%
- inhibition at 1.1 µM [2]: 107%
- inhibition at 1 µM [3]: 105%
- inhibition at 1 µM [4]: 57%
Compound: N#Cc1c(N2CCOCC2)sc(C(=O)O)c1C(N)c1ccc(Cl)c(Cl)c1 (centres unmarked) [Compound 291]

- inhibition at 1.1 µM [1]: 4%
- inhibition at 1.1 µM [2]: 82%
- inhibition at 1 µM [3]: 56%
- inhibition at 1 µM [4]: 6%
Compound: O=C(O)c1sc(N2CCOCC2)nc1Cc1ccc2cnccc2c1 [Compound 292]

- inhibition at 1.1 µM [1]: 47%
- inhibition at 1.1 µM [2]: 94%
- inhibition at 1 µM [3]: 101%
- inhibition at 1 µM [4]: 35%
Compound: N#Cc1c(N2CCOCC2)sc(C(=O)O)c1Cn1cnc2ccccc2c1=O [Compound 294, 4-cyano-5-(morpholin-4-yl)-3-[(4-oxoquinazolin-3(4H)-yl)methyl]thiophene-2-carboxylic acid]

- inhibition at 1.1 µM [1]: 37%
- inhibition at 1.1 µM [2]: 79%
- inhibition at 1 µM [3]: 107%
- inhibition at 1 µM [4]: 14%
Compound: O=C(O)c1sc(N2CCOCC2)c(C#Cc2ccccc2)c1Cc1ccc(Cl)c(Cl)c1 [Compound 296, 3-(3,4-dichlorobenzyl)-5-(morpholin-4-yl)-4-(phenylethynyl)thiophene-2-carboxylic acid]

- inhibition at 1.1 µM [1]: 26%
- inhibition at 1.1 µM [2]: 104%
- inhibition at 1 µM [3]: 77%
- inhibition at 1 µM [4]: 33%
Compound: N#Cc1c(N2CCOC(CO)C2)sc(C(=O)O)c1Cc1ccc2ccccc2c1 (centres unmarked) [Compound 297, 4-cyano-5-[2-(hydroxymethyl)morpholin-4-yl]-3-(2-naphthylmethyl)thiophene-2-carboxylic acid]

- inhibition at 1.1 µM [1]: 11%
- inhibition at 1.1 µM [2]: 95%
- inhibition at 1 µM [3]: 103%
- inhibition at 1 µM [4]: 38%
Compound: O=C(NO)c1sc(N2CCOCC2)nc1Cc1ccc(Cl)c(Cl)c1 [Compound 298, 4-(3,4-dichlorobenzyl)-N-hydroxy-2-(morpholin-4-yl)-1,3-thiazole-5-carboxamide]

- inhibition at 1.1 µM [1]: 39%
- inhibition at 1.1 µM [2]: 109%
- inhibition at 1 µM [3]: 108%
- inhibition at 1 µM [4]: 42%
Compound: O=C(O)c1sc(N2CCOCC2)nc1Cc1ccc2cccc(F)c2c1 [Compound 299]

- inhibition at 1.1 µM [1]: 55%
- inhibition at 1.1 µM [2]: 107%
- inhibition at 1 µM [3]: 89%
- inhibition at 1 µM [4]: 49%
Compound: COc1ccc2cc(Cc3c(C(=O)O)sc(N4CCOCC4)c3C#N)ccc2c1 [Compound 301]

- inhibition at 1.1 µM [1]: 21%
- inhibition at 1.1 µM [2]: 100%
- inhibition at 1 µM [3]: 97%
- inhibition at 1 µM [4]: 15%
Compound: Cn1c(Cc2nc(N3CCOCC3)sc2C(=O)O)cc2ccccc21 [Compound 302]

Second part, the compound before the results:

Compound: OC(c1cccc(-c2ccncc2)c1)c1cc(-c2ccncc2)sc1-c1nnc[nH]1 (centres unmarked) [Compound 258]
- inhibition at 1.1 µM [1]: 18%
- inhibition at 1.1 µM [2]: 86%
- inhibition at 1 µM [3]: 47%
- inhibition at 1 µM [4]: 13%

Compound: OC(c1ccc(Br)o1)c1cc(-c2ccncc2)sc1-c1nnc[nH]1 (centres unmarked) [Compound 260]
- inhibition at 1.1 µM [1]: 37%
- inhibition at 1.1 µM [2]: 74%
- inhibition at 1 µM [3]: 37%
- inhibition at 1 µM [4]: 6%

Compound: OC(c1cnc2ccccc2n1)c1cc(-c2ccncc2)sc1-c1nnc[nH]1 (centres unmarked) [Compound 263]
- inhibition at 1.1 µM [1]: 48%
- inhibition at 1.1 µM [2]: 105%
- inhibition at 1 µM [3]: 84%
- inhibition at 1 µM [4]: 43%

Compound: COc1ccc(C(O)c2cc(-c3ccncc3)sc2-c2nnc[nH]2)c(F)c1 (centres unmarked) [Compound 264]
- inhibition at 1.1 µM [1]: 32%
- inhibition at 1.1 µM [2]: 99%
- inhibition at 1 µM [3]: 100%
- inhibition at 1 µM [4]: 28%

Compound: COc1cc(C(O)c2cc(-c3ccnc(C)c3)sc2-c2nnc[nH]2)c(F)cc1Cl (centres unmarked) [Compound 265]
- p110 alpha Percent Inhibition [1]: 64%
- p110 beta Percent Inhibition [2]: 109%
- p110 delta Percent Inhibition [3]: 111%
- p110 gamma Percent Inhibition [4]: 64%

Compound: OC(c1cc(F)ccc1F)c1cc(-c2ccncc2)sc1-c1nnc[nH]1 (centres unmarked) [Compound 266]
- inhibition at 1.1 µM [1]: 36%
- inhibition at 1.1 µM [2]: 90%
- inhibition at 1 µM [3]: 52%
- inhibition at 1 µM [4]: 8%

Compound: CC(=O)Nc1cc(-c2cc(C(c3ccc(Cl)cc3)N3CCN(C)CC3)c(-c3nnc[nH]3)s2)ccn1 (centres unmarked) [Compound 267]
- inhibition at 1.1 µM [1]: 100%
- inhibition at 1.1 µM [2]: 113%
- inhibition at 1 µM [3]: 111%
- inhibition at 1 µM [4]: 43%

Compound: CC(=O)Nc1cc(-c2cc(C(c3ccc(Cl)cc3)N3CCC[C@@H]3CO)c(-c3nnc[nH]3)s2)ccn1 (some centres unmarked) [Compound 268]
- inhibition at 1.1 µM [1]: 82%
- inhibition at 1.1 µM [2]: 95%
- inhibition at 1 µM [3]: 102%
- inhibition at 1 µM [4]: 16%

Compound: CC(=O)Nc1cc(-c2cc(C(c3ccc(Cl)cc3)N3CC(CCN)C3)c(-c3nnc[nH]3)s2)ccn1 (centres unmarked) [Compound 270]
- inhibition at 1.1 µM [1]: 81%
- inhibition at 1.1 µM [2]: 114%
- inhibition at 1 µM [3]: 111%
- inhibition at 1 µM [4]: 24%

Compound: Cc1ccc(C(O)c2cc(-c3ccncc3)sc2-c2nnc[nH]2)s1 (centres unmarked) [Compound 271]
- inhibition at 1.1 µM [1]: 35%
- inhibition at 1.1 µM [2]: 82%
- inhibition at 1 µM [3]: 63%
- inhibition at 1 µM [4]: 8%

Compound: COc1ccc(C(O)c2cc(-c3ccncc3)sc2-c2nnc[nH]2)cn1 (centres unmarked) [Compound 272]
- inhibition at 1.1 µM [1]: 70%
- inhibition at 1.1 µM [2]: 96%
- inhibition at 1 µM [3]: 70%
- inhibition at 1 µM [4]: 10%

Compound: CC(=O)Nc1cc(-c2cc(C(O)(C3=CCOCC3)c3ccc(Cl)cc3)c(-c3nnc[nH]3)s2)ccn1 (centres unmarked) [Compound 273]
- inhibition at 1.1 µM [1]: 88%
- inhibition at 1.1 µM [2]: 73%
- inhibition at 1 µM [3]: 98%
- inhibition at 1 µM [4]: 7%

Compound: CC(=O)Nc1cc(-c2cc(C(c3ccc(Cl)cc3)N(C)C3CNC3)c(-c3nnc[nH]3)s2)ccn1 (centres unmarked) [Compound 274]
- inhibition at 1.1 µM [1]: 98%
- inhibition at 1.1 µM [2]: 109%
- inhibition at 1 µM [3]: 107%
- inhibition at 1 µM [4]: 38%

Compound: OC(c1cc(-c2ccncc2)sc1-c1nnc[nH]1)c1c(F)cccc1Cl (centres unmarked) [Compound 275]
- inhibition at 1.1 µM [1]: 17%
- inhibition at 1.1 µM [2]: 47%
- inhibition at 1 µM [3]: 44%
- inhibition at 1 µM [4]: 14%

Compound: OC(c1ccccc1-c1cccnc1)c1cc(-c2ccncc2)sc1-c1nnc[nH]1 (centres unmarked) [Compound 276]
- inhibition at 1.1 µM [1]: 4%
- inhibition at 1.1 µM [2]: 15%
- inhibition at 1 µM [3]: 12%
- inhibition at 1 µM [4]: 6%

Compound: CC(=O)Nc1cc(-c2cc(C(c3ccc(Cl)cc3)N(C)C3CNC3)c(-c3nnc[nH]3)s2)ccn1 (centres unmarked) [Compound 277]
- p110 alpha Percent Inhibition [1]: 95%
- p110 beta Percent Inhibition [2]: 97%
- p110 delta Percent Inhibition [3]: 116%
- p110 gamma Percent Inhibition [4]: 55%

Compound: COc1cc(C(O)c2cc(-c3ccnc(Cl)c3)sc2-c2nnc[nH]2)c(F)cc1Cl (centres unmarked) [Compound 278]
- p110 alpha Percent Inhibition [1]: 23%
- inhibition at 1.1 µM [2]: 98%
- p110 delta Percent Inhibition [3]: 83%
- p110 gamma Percent Inhibition [4]: 35%

Compound: COc1cc(C(O)c2cc(-c3ccncc3)sc2-c2nnc[nH]2)c(F)cc1Cl (centres unmarked) [Compound 279]
- inhibition at 1.1 µM [1]: 19%
- inhibition at 1.1 µM [2]: 106%
- inhibition at 1 µM [3]: 78%
- inhibition at 1 µM [4]: 42%

Compound: OC(c1cc(-c2ccncc2)sc1-c1nnc[nH]1)c1c(F)ccc2ccccc12 (centres unmarked) [Compound 281]
- p110 alpha Percent Inhibition [1]: 52%
- inhibition at 1.1 µM [2]: 96%
- p110 delta Percent Inhibition [3]: 97%
- p110 gamma Percent Inhibition [4]: 56%

Compound: COc1cc(C(O)c2cc(-c3ccnnc3)sc2-c2nnc[nH]2)c(F)cc1Cl (centres unmarked) [Compound 282]
- inhibition at 1.1 µM [1]: 14%
- inhibition at 1.1 µM [2]: 99%
- p110 delta Percent Inhibition [3]: 64%
- p110 gamma Percent Inhibition [4]: 21%

Compound: OC(c1cc2ccccc2cc1F)c1cc(-c2ccncc2)sc1-c1nnc[nH]1 (centres unmarked) [Compound 284]
- p110 alpha Percent Inhibition [1]: 39%
- p110 beta Percent Inhibition [2]: 114%
- p110 delta Percent Inhibition [3]: 110%
- p110 gamma Percent Inhibition [4]: 66%

Compound: COc1cc(C(O)c2cc(-c3ccnc(C)c3)sc2-c2nnc[nH]2)c(F)cc1Cl (centres unmarked) [Compound 285]
- p110 alpha Percent Inhibition [1]: 16%
- p110 beta Percent Inhibition [2]: 83%
- p110 delta Percent Inhibition [3]: 77%
- p110 gamma Percent Inhibition [4]: 18%
